Among the data in patent US9226929B2, “Pharmaceutically active disubstituted triazine derivatives” (Bayer Intellectual Property GMBH, priority 2011, dated 2016) are Kd and IC50 values, retold here.

The target in test [1] is T1, CDK9/Cyclin T1 (Homo sapiens, UniProt P50750).
T1 construct: His; purchased Invitrogen
In words: LanthaScreen Eu Kinase Binding Assay, CDK9/Cyclin T1. Particulars: tracer 236, read-out: CDK9/Cyclin T1 (activity range), Kd. On the procedure: (§1) This protocol describes how the LanthaScreen Eu Kinase Binding Assay was performed to determine dissociation constants (Kd) of compounds of general formula (I) and CDK/Cyclin complexes. The principle behind this assay is based upon the binding and displacement of an Alexa Fluor 647-labeled tracer, which binds to the active site of kinases. Binding of the tracer to the kinase is detected using a Eu-labeled antibody. Simultaneous binding of both the tracer and antibody to the kinase gives rise to a FRET-signal. Binding of an inhibitor to the kinase competes for binding with the tracer, resulting in a loss of FRET.
(§2) The compounds of general formula (I) summarized in Table 1 were diluted from a 10 mM DMSO stock solution 1:10 in a total volume of 15 μL DMSO. This compound predilution was then serial diluted 1:3 over 8 steps in DMSO and briefly spun down. Each compound solution was now diluted 1:33.33 in kinase buffer (HEPES: 20 mM, pH: 8.0; MgCl2: 10 mM; DTT: 1 mM; Brij-35: 0,01%), mixed thoroughly and spun down. For every sample, 5 μL of the diluted compound were mixed with 5 μL tracer working solution (e.g. 60 nM tracer 236 in kinase buffer for CDK2/Cyclin A) and 5 μL CDK/Cyclin/Anti-GST-AB-working solution (e.g. 15 nM CDK2/Cyclin A, 1:250 dilution of Anti-GST-AB in kinase buffer) in a well of a small volume 384 well plate (Corning Incorporated, Corning, N.Y., USA; order no. 3673). The tracer concentration was adjusted to its dissociation constant (Kd) for the CDK/Cyclin, which was 30 nM for CDK2/Cyclin A, CDK7/Cyclin H and CDK9/Cyclin T1, 20 nM for CDK8/Cyclin C, and 35 nM for CDK9/Cyclin K. For negative controls, in each well 5 μL of DMSO working solution (3% DMSO diluted in kinase buffer) was mixed with 5 μL Anti-GST-AB working solution (e.g. 1:250 dilution of Anti-GST-AB in kinase buffer for CDK2/Cyclin A) and 5 μL Tracer working solution (e.g. 60 nM Tracer 236 in kinase buffer for CDK2/Cyclin A). For positive controls, in each well 5 μL of DMSO working solution (3% DMSO diluted in kinase buffer) was mixed with 5 μL CDK/Cyclin/Anti-GST-AB-working solution: (e.g. 15 nM CDK2/Cyclin A, 1:250 dilution of Anti-GST-AB in kinase buffer) and 5 μL Tracer working solution (e.g. 60 nM Tracer 236 in kinase buffer for CDK2/Cyclin A). Positive and negative controls were calculated from at least 8 different sample wells. The 384 well plates were mixed in a Teleshaker plate mixer (Beckman Coulter, Brea, Calif., USA) at 2000 rpm for 40 sec, and incubated for 1 h at room temperature before reading. The FRET signal was measured at 340 nm excitation, 665 nm and 615 nm emission (for the kinase tracer and LanthaScreen Eu-AB, respectively) with an Envision spectrophotometer (Perkin Elmer, Waltham, Mass., USA) with […]. Kd values were determined from the sigmoidal dose response curves with the software Quattro Workflow (Quattro GmbH, Munich, Germany).
A general note: Time-resolved FRET reads energy transfer from a long-lived donor to a nearby acceptor.

In test [2] the target is T2, CDK9/Cyclin K (Homo sapiens, UniProt P50750).
T2 construct: His; purchased Invitrogen
In words: LanthaScreen Eu Kinase Binding Assay, CDK9/Cyclin K. Particulars: tracer 236, read-out: CDK9/Cyclin K (activity range), Kd. On the procedure:
as §1, §2

The target in test [3] is T3, CDK7/CyclinH/MAT1 (Homo sapiens, UniProt P50613).
T3 construct: His; purchased Carna Biosciences
Briefly: LanthaScreen Eu Kinase Binding Assay, CDK7. The note with it: tracer 236, read-out: CDK7 (activity range), Kd. The protocol: as §1, §2

Test [4] addresses T4, CDK2/CyclinA (Homo sapiens, UniProt P24941).
T4 construct: GST; purchased Proqinase
Briefly: LanthaScreen Eu Kinase Binding Assay, CDK2. The note with it: tracer 236, read-out: CDK2 (activity range), Kd. On the procedure:
as §1, §2

In test [5] the test system is NF-kappaB reporter gene activation. Briefly: NF-kappaB Reporter Assay. The class given is cell-based. The note with it: Homo sapiens; HEK293 cells, pNFkBluc reporter, 20 ng/ml TNF alpha, 5 h; read-out: NF-kappaB activation (activity range), IC50. The protocol:
3.2 NF-kappaB Reporter Assay
Cells were maintained in RPMI cell culture medium+glutamine (PAN Biotech GmbH, Aidenbach, Germany) supplemented with 10% fetal calf serum (PAA Laboratories GmbH, Pasching, Austria) and grown at 37° C., 5% CO2. HEK293 cells grown to 50% confluence were transfected with the Amaxa® Cell Line Nucleofector® Kit V (Lonza, Basel, Switzerland, catalog #VCA-1003). Transfections were performed according to manufacturer's optimized protocol for transfection of HEK293 cells. In brief, 2×10^5 cells were transfected with 5 μg highly purified plasmid DNA. Cells were transfected with a NF-kappa B reporter plasmid (pNFkBluc), pTALluc for control, or pMAXGFP for transfection control. After transfection, cells were taken up in 500 μL RPMI1640 cell culture medium, incubated for 1 h at 37° C., and 4.5 ml DMEM without phenol red were added per transfection. Transfected cells were seeded in 96 well plates (Greiner Bio-One, Frickenhausen, Germany, catalog #655098) with 100 μL cell suspension per well and incubated for 48 h. To each well, 100 μL DMEM with 2× concentrated compound diluted from 10 mM DMSO stocks, or 100 μL DMEM with 0.4% DMSO for control wells, was added. The compounds of general formula (I) summarized in Table 6 were used in this assay. Cells were stimulated with 20 ng/ml TNF alpha, and plates were incubated for 5 h at 37° C./5% CO2. Cell culture supernatants were removed to leave 100 μl medium per well, followed by addition of 100 μl Bright Glo luciferase assay reagent (Promega, Madison, Wis., USA, catalog #E2620), and shaking for 5 minutes in the dark. Luminescence was measured with a Victor Photospectrometer (Perkin Elmer, Waltham, Mass., USA). IC50 values were calculated with the software Excel Fit (IDBS, Guildford, UK) from 2-fold dilution series comprising at least 10 concentrations in duplicates.
A general note: In a reporter assay the amount or activity of a reporter protein is the signal.

Test [6] addresses T5, CDK9 (Homo sapiens, UniProt P50750).
T5 construct: purchased Invitrogen
In words: Lance Ultra KinaSelect Assay, CDK9. The class given is biochemical. The note with it: cyclin partner (T1 or K) not stated; read-out: CDK9 LANCE assay (activity range), IC50. On the procedure: (§3) 2. Measurement of half maximal inhibitory concentration to CDKs This protocol describes how the Lance Ultra KinaSelect Assay was performed to determine half maximal inhibitory concentration (1050) of compounds of general formula (I) and CDK/Cyclin complexes. The principle behind this enzymatic assay is based upon the phosphorylation of the ULight-Peptide Substrat. It is detected by using a specific
(§4) EU-labeled anti-phospho peptide antibody. The binding of the Eu-labeled anti-phospho peptide antibody to the phosphorylated ULight labeled peptide gives rise to a FRET-signal. Binding of an inhibitor to the kinase prevents phosphorylation of the ULight-MBP Substrat, resulting in a loss of FRET.
(§5) The compounds of general formula (I) summarized in Table 5 were diluted from a 10 mM DMSO stock solution 1:10 in a total volume of 15 μL DMSO. This compound predilution was then serial diluted 1:3 over 8 steps in DMSO and briefly spun down. Each compound solution was now diluted 1:20 in Enzymatic Buffer (HEPES: 50 mM, pH: 7.5; MgCl2: 10 mM; EGTA: 1 mM; DTT: 2 mM; Tween-20: 0.01%), mixed thoroughly and spun down. For every sample, 2 μL of the diluted compound were mixed with 6 μL CDK/Cyclin/Substrat solution and 2 μL ATP solution in a well of a small volume 384 well plate (Corning Incorporated, Corning, N.Y., USA; order no. 3673). The CDK/Cyclin was diluted to the appropriate concentration (see Table 3) and the ATP concentration was adjusted to its […] for the CDK/Cyclin, which was 3 μM for CDK2/Cyclin A, 20 μM for CDK1/Cyclin B1, 25 μM for CDK7/Cyclin H and CDK9/Cyclin T1, 55 μM for CDK6/Cyclin D3, 90 μM for CDK4/Cyclin D1 and 125 μM for CDK9/Cyclin K. For negative controls, in each well 2 μL of DMSO solution (1% final DMSO assay concentration) was mixed with 6 μL substrate solution (50 nM ULight MBP final assay concentration) and 2 μL ATP solution (appropriate final concentration see Table 3). For positive controls, in each well 2 μL of DMSO solution (1% final DMSO assay concentration) was mixed with 6 μL CDK/Cyclin/Substrat (appropriate final concentration see Table 3) and 2 μL Tracer ATP solution (appropriate final concentration see Table 3). Positive and negative controls were calculated from at least 8 different sample wells. The 384 well plates were mixed in a Teleshaker plate mixer (Beckman Coulter, Brea, Calif., USA) at 2000 rpm for 40 sec, and incubated for 1 h at room temperature. Before reading, 10 μL the detection buffer (Lance Detection Buffer 1×; EDTA: […]; Eu-Anti-P-MBP: see Table 3) was added. The FRET signal was measured at 340 nm excitation, 665 nm and 615 nm emission (for the kinase tracer and LanthaScreen Eu-AB, respectively) with an Envision spectrophotometer (Perkin Elmer, Waltham, Mass., USA) with 50 μs delay and 300 μs integration time. IC50 values were determined from the sigmoidal dose response curves with the software Quattro Workflow (Quattro GmbH, Munich, Germany).

In test [7] the target is T4, CDK2/CyclinA. Briefly: Lance Ultra KinaSelect Assay, CDK2. The class given is biochemical. Particulars: ATP 3 μM; read-out: CDK2 LANCE assay (activity range), IC50. On the procedure:
as §3, §4, §5

Test [8] concerns the target T6, CDK1/CyclinB1 (Homo sapiens, UniProt P06493).
T6 construct: purchased Carna
Briefly: Lance Ultra KinaSelect Assay, CDK1. The format is biochemical. The note with it: ATP 20 μM; read-out: CDK1 LANCE assay (activity range), IC50. On the procedure:
as §3, §4, §5

In test [9] the target is T7, CDK4/CyclinD1 (Homo sapiens, UniProt P11802).
T7 construct: purchased Invitrogen
In words: Lance Ultra KinaSelect Assay, CDK4. The class given is biochemical. The note with it: ATP 90 μM; read-out: CDK4 LANCE assay (activity range), IC50. On the procedure: as §3, §4, §5

The target in test [10] is T8, CDK6/CyclinD3 (Homo sapiens, UniProt Q00534).
T8 construct: purchased Carna
Briefly: Lance Ultra KinaSelect Assay, CDK6. Particulars: ATP 55 μM; read-out: CDK6 LANCE assay (activity range), IC50. The class given is biochemical. On the procedure: as §3, §4, §5

The target of test [11] is T3, CDK7/CyclinH/MAT1. Briefly: Lance Ultra KinaSelect Assay, CDK7. The note with it: ATP 25 μM; read-out: CDK7 LANCE assay (activity range), IC50. The format is biochemical. On the procedure:
as §3, §4, §5

T5 sequence (P50750 whole entry): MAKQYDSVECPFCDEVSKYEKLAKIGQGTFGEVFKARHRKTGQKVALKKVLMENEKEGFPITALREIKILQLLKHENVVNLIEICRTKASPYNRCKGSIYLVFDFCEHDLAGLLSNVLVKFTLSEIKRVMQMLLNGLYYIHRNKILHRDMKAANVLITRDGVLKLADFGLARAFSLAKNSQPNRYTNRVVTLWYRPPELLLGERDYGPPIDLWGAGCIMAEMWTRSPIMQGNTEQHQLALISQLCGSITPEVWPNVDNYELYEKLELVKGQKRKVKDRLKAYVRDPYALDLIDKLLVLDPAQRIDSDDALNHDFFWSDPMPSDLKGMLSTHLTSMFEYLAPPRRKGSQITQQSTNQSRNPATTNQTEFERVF
T1 sequence (P50750 whole entry): as above
T1 sequence (O60563 whole entry partner): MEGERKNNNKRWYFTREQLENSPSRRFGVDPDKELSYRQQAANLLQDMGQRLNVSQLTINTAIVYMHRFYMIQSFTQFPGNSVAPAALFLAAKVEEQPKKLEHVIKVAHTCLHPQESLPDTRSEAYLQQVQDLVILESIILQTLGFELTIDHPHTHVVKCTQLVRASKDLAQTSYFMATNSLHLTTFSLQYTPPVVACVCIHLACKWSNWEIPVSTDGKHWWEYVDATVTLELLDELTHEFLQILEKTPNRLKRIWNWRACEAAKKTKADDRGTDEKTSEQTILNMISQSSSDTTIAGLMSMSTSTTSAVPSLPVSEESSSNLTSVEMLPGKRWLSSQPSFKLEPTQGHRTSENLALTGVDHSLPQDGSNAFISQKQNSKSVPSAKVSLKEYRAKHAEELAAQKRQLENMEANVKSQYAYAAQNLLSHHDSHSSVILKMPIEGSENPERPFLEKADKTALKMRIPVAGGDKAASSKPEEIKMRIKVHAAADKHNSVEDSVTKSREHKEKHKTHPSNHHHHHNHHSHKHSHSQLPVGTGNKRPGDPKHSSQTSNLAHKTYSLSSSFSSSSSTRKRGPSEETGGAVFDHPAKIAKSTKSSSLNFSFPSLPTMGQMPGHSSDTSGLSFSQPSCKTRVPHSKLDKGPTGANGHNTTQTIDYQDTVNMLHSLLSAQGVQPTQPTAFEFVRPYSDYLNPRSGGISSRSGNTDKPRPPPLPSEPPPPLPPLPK
T3 sequence (P50613 whole entry): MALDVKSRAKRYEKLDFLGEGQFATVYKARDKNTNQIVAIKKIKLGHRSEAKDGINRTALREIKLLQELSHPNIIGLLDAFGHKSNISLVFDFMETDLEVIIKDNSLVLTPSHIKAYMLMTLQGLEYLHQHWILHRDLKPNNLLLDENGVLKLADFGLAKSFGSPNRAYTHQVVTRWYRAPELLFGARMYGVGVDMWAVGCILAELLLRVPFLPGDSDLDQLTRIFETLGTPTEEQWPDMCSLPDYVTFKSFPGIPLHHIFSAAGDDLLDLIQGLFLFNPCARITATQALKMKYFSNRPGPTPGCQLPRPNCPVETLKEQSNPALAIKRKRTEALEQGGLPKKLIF
T3 sequence (P51946 whole entry partner): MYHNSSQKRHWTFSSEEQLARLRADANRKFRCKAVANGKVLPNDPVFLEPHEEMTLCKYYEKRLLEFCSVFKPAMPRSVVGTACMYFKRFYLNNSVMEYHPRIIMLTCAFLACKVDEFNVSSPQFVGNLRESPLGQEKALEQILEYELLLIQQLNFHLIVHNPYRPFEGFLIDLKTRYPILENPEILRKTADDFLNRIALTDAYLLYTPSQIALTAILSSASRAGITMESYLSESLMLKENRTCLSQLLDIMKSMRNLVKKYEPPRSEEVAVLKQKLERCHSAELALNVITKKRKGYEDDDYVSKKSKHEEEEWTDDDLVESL
T3 sequence (P51948 whole entry partner): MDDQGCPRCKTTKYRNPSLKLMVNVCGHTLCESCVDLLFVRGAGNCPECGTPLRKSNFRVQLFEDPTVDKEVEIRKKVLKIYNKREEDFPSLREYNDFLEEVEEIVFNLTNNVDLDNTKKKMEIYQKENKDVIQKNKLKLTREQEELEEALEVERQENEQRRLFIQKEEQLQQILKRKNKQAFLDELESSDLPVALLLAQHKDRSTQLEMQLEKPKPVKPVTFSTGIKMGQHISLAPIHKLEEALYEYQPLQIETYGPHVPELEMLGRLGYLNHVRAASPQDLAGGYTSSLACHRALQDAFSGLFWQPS
T2 sequence (P50750 whole entry): as the sequence (P50750 whole entry) above
T2 sequence (O75909 1-357 isoform O75909-1 partner): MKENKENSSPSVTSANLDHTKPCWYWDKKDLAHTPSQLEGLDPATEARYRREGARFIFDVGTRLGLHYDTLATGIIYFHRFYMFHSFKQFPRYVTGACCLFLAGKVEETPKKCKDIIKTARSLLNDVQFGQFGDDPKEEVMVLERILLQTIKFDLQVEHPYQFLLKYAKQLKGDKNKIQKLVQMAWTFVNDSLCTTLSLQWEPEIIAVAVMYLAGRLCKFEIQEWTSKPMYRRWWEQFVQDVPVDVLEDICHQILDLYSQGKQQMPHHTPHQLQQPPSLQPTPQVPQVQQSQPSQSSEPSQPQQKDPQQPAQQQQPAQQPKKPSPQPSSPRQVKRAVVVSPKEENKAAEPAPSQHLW
T8 sequence (Q00534 whole entry): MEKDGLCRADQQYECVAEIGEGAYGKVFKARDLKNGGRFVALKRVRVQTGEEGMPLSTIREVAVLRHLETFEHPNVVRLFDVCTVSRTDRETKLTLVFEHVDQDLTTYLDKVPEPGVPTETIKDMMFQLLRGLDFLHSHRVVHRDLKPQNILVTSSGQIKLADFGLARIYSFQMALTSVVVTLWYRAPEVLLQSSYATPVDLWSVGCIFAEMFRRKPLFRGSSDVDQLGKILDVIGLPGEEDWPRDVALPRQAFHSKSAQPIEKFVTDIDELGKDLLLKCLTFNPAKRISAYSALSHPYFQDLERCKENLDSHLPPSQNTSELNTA
T8 sequence (P30281 whole entry partner): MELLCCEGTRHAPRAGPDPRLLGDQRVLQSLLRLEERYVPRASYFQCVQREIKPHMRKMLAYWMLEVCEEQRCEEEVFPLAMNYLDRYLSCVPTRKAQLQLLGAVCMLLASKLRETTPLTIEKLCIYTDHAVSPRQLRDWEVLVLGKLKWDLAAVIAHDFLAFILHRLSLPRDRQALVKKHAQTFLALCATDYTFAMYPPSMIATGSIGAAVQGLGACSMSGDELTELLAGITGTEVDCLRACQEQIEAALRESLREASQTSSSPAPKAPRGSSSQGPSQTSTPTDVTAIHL
T7 sequence (P11802 whole entry): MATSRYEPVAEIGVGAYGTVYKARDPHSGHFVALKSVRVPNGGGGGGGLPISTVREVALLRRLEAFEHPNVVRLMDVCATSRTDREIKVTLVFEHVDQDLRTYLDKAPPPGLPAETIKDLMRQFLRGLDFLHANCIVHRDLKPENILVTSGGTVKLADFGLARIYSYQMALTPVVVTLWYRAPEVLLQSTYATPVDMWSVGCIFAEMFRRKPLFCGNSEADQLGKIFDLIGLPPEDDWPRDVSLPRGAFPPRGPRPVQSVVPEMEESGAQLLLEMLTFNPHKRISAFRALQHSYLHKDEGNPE
T7 sequence (P24385 whole entry partner): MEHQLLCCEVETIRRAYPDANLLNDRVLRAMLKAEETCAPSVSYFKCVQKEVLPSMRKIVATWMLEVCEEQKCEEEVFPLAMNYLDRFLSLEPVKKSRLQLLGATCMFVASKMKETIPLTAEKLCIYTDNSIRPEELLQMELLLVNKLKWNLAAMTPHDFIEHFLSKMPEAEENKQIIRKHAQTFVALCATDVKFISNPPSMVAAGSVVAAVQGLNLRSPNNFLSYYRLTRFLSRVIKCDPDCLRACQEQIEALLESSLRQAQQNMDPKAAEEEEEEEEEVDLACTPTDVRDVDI
T6 sequence (P06493 whole entry): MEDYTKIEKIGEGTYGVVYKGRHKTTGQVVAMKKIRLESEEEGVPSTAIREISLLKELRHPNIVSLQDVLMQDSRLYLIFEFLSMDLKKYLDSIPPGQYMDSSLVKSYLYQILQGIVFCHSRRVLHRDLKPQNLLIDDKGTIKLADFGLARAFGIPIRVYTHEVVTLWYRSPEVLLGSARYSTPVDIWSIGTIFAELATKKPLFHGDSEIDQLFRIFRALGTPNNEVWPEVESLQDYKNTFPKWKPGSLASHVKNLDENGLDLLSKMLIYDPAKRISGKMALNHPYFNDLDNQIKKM
T6 sequence (P14635 whole entry partner): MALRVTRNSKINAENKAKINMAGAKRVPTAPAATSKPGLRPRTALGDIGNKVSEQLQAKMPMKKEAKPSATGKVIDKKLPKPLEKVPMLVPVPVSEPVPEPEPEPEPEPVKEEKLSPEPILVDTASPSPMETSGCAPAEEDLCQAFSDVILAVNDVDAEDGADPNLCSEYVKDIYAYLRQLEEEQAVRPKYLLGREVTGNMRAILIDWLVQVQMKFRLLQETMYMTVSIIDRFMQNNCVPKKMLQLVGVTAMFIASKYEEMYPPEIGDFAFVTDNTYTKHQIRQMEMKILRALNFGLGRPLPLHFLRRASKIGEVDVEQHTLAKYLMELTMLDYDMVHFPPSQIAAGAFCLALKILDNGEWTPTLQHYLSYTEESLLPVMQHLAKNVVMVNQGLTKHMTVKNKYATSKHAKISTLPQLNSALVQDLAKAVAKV

The term IC50 denotes the point on the concentration scale where inhibition reaches its midpoint. As for `NS(=O)(=O)Cc1cccc(Nc2ncnc(N3CCC[C@@H]3COCc3ccccc3)n2)c1` [Compound B30, (R)-3-[(4-(2-(Benzyloxymethyl)pyrrolidin-1-yl)-1,3,5-triazin-2-yl)amino]benzenemethanesulfonamide], the Kd is 0.1 to 1 µM in [1], 0.1 to 1 µM in [2], greater than 10 µM in test [3] and greater than 10 µM in [4]. In addition, in [5], the IC50 was greater than 10 µM.

Turning to `NS(=O)(=O)Cc1cccc(Nc2ncnc(N3CCC[C@@H]3C(F)(F)F)n2)c1` [Compound B54, (R)-3-[(4-(2-(Trifluoromethyl)pyrrolidin-1-yl)-1,3,5-triazin-2-yl)amino]-benzenemethanesulfonamide], the Kd is 0.1 to 1 µM in test [1], greater than 10 µM in test [3] and 1 to 10 µM in test [4]. Moreover, the IC50 in test [6] and in [7] was 1 to 10 µM throughout.

In the case of `C[C@H]1CCCN1c1ncnc(Nc2cccc(CS(N)(=O)=O)c2)n1` [Compound B53, (S)-3-[(4-(2-Methylpyrrolidin-1-yl)-1,3,5-triazin-2-yl)amino]-benzenemethanesulfonamide], the Kd in [1] was less than 0.1 µM; in [3], greater than 10 µM; in test [4] it was 1 to 10 µM. For the same compound, the IC50 in [6] is 0.1 to 1 µM; in [7], 1 to 10 µM.

For `CN(C)CCC1CCCCN1c1ncnc(Nc2cccc(CS(N)(=O)=O)c2)n1` (racemic) [Compound B8, rac-3-[(4-(2-(2-(Dimethylamino)ethyl)piperidin-1-yl)-1,3,5-triazin-2-yl)amino]benzenemethanesulfonamide], the Kd in test [1] and in [2] was 1 to 10 µM in each case. Further, the IC50 in [6] is 1 to 10 µM; in test [8], greater than 10 µM; in test [7], greater than 10 µM; in test [9], greater than 10 µM; in [10], greater than 10 µM; in test [11], greater than 10 µM.
